pEC50: −log10 of the molar value.
Target: T1, Human TREM2 (Homo sapiens, UniProt Q9NZC2)
T1 construct: expressed in transfected cells
Assay: Human TREM2 cellular phospho-Syk AlphaLISA assay in HEK293/DAP12+TREM2 stable cell line
Type: cell-based
Conditions: HEK293/DAP12+TREM2 cells; for Emax: maximal response relative to the maximal response of the reference agonist, phospho-Syk AlphaLISA; for pEC50: phospho-Syk (Tyr525/526) AlphaLISA signal, 30 min incubation
Text: Human TREM2, in vitro Measurement of Triggering Receptor Expressed on Myeloid Cells 2 activity using cellular phosphorylation of Spleen Tyrosine Kinase (“Syk”) Assay
HEK-293 cells were co-transfected with separate plasmids encoding TREM2 and DAP12 to generate a stable cell line. After antibiotic selection, functional clone pool analysis and two successive limiting dilutions, the final clone “HEK293/DAP12+TREM2” underwent a qPCR analysis and a pharmacological validation.
TREM2 signaling through DAP12 was monitored in the HEK293/DAP12+TREM2 stable cell line by measuring the phosphorylation levels of the Syk kinase using the commercially available AlphaLISA SureFire Ultra p-SYK (Tyr525/526) Assay Kit (PerkinElmer #ALSU-PSYK), based on the Perkin Elmer AlphaScreen/AlphaLISA technology.
Compounds are transferred to the test plate and tested in full dose response, 8 concentrations in quadruplicate data points. Compound serial dilutions were performed at Cybi-Felix instrument in 100% DMSO and the dose response curves were assembled in automated fashion in 384MPT at Hamilton STARlet instrument. All the stock solutions were prepared at 20 mM in 100% DMSO. For compounds testing, the starting concentration was 100 μM, dilution steps 1:6. A different concentration's range was adapted for compound's activity based on the preliminary results. Finally, a 384MPT reformatted for all compounds at 8 concentrations, quadruplicates, was used as “mother to child” process with a CyBi@-Well dispenser in which 1 μL of each compound was moved into a destination plate pre-filled with […] of EMEM cell culture medium (BIOWHITTAKER_cat.BE12-125F), thus obtaining 3× concentrated compounds working solution. In columns 1-2 and 23-24 the control wells were added. In particular, dose response curves of a reference control agonist were included in column 1 and 24 as reference control agonist (Reference control agonists used include Human TREM2 polyclonal Antibody AF1828: R&D Systems; Human TREM2 monoclonal Antibody MAB1828: R&D Systems). The dose response curves were tested starting at 30 μM, dilution step 1:6. Both “source” compound plate and “destination” compound plate were barcoded and a relationship between the two plates was thus generated.
HEK293/DAP12+TREM2 cells were cultured in EMEM medium supplemented with IX Penicillin/Streptomycin (BIOWHITTAKER_cat.DE17-602E), ULTRAGLUTAMINE I 200 mM, 10% Fetal Bovine Serum plus antibiotics referred to as “HEK293 Culture Medium”. The day before the experiment, cells were detached by gentle wash with DPBS, followed by 5 min incubation at 37° C. with Trypsin solution. Cells were then diluted in HEK293 Culture Medium without antibiotics, counted and seeded into 384-well poly-D-Lysine coated microplates black/clear bottom (GREINER 781946) at a density of 10,000 cells/well in 25 μL/well by the use of a MATRIX WellMate dispenser. Plates were placed into a humidified cell culture incubator at 37° C. with 5% CO2 until the experimental day. 20-24 hours after seeding mature medium was removed and replaced with 10 μL/well of EMEM cell medium supplemented with 0.1% Pluronic F-68 non-ionic surfactant (Thermofisher, 24040032), referred to as “Assay Buffer”, using the CyBi@-Well instrument. Then 5 μL/well of Assay Buffer containing 3× concentrated test compounds or the reference control agonist (in 0.5% final DMSO concentration) were added to the cells with the CyBi@-Well instrument. Cell plates were incubated for 30 min into a humidified cell culture incubator at 37° C. with 5% CO2, then the medium was removed by manually discard. 20 μL/well of lysis buffer were dispensed using the CyBi@-Well instrument and plates were incubated for 10 min at room temperature on a plate shaker (350 rpm). Then, 10 μL/well of lysate were transferred to the Alpha plates.
The CyBi@-Well instrument was used to dispense 5 μL/well of AlphaLISA Acceptor Bead Solution in IX Immunoassay buffer (Perkin Elmer AL000F). […]

T1 sequence (Q9NZC2 19-230): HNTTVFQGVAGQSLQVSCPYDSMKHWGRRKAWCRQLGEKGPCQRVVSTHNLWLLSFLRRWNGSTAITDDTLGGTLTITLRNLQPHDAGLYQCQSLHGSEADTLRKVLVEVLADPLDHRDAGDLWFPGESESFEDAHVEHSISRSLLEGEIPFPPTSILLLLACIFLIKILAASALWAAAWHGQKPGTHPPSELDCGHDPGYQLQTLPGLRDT
T1 sequence (O43914 22-113 partner): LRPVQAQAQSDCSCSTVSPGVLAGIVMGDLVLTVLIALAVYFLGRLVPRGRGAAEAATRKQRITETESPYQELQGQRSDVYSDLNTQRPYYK

Row | SMILES | Emax [%] | pEC50
1 | Cc1ncncc1OC1CN(c2nc(-c3ccc(C#N)cc3F)c3nc(C(F)(F)F)n(C)c(=O)c3n2)C1 [Example 29, 3-fluoro-4-(7-methyl-2-(3-((4-methylpyrimidin-5-yl)oxy)azetidin-1-yl)-8-oxo-6-(trifluoromethyl)-7,8-dihydropyrimido[5,4-d]pyrimidin-4-yl)benzonitrile] | < 75 | 6.00 to 7.00
2 | Cn1c(C(F)(F)F)nc2c(-c3ccc(F)cc3F)nc(N3CC(Cc4cnn(C5CC5)c4)C3)nc2c1=O [Example 31, 6-(3-((1-cyclopropyl-1H-pyrazol-4-yl)methyl)azetidin-1-yl)-8-(2,4-difluorophenyl)-3-methyl-2-(trifluoromethyl)pyrimido[5,4-d]pyrimidin-4(3H)-one] | 75 to 110 | 6.00 to 7.00
3 | CN(c1cnn(C2CC2)c1)C1CN(c2nc(-c3ccc(F)cc3F)c3nc(C(F)(F)F)n(C)c(=O)c3n2)C1 [Example 33, 6-(3-((1-cyclopropyl-1H-pyrazol-4-yl)(methyl)amino)azetidin-1-yl)-8-(2,4-difluorophenyl)-3-methyl-2-(trifluoromethyl)pyrimido[5,4-d]pyrimidin-4(3H)-one] | 75 to 110 | 6.00 to 7.00
4 | COc1ccc(-c2nc(N3CC(Oc4cnn(C5CC5)c4)C3)nc3c(=O)n(C)c(C(F)(F)F)nc23)c(F)c1 [Example 36, 6-(3-((1-cyclopropyl-1H-pyrazol-4-yl)oxy)azetidin-1-yl)-8-(2-fluoro-4-methoxyphenyl)-3-methyl-2-(trifluoromethyl)pyrimido[5,4-d]pyrimidin-4(3H)-one] | < 75 | 6.00 to 7.00
5 | COc1ccc(-c2nc(N3CC(Oc4cnn(C5CC5)c4)C3)nc3c(=O)n(C)c(C(F)(F)F)nc23)cn1 [Example 37, 6-(3-((1-cyclopropyl-1H-pyrazol-4-yl)oxy)azetidin-1-yl)-8-(6-methoxypyridin-3-yl)-3-methyl-2-(trifluoromethyl)pyrimido[5,4-d]pyrimidin-4(3H)-one] | 75 to 110 | 6.00 to 7.00
6 | Cn1c(C(F)(F)F)nc2c(-c3ccc(C#N)nc3)nc(N3CC(Oc4cnn(C5CC5)c4)C3)nc2c1=O [Example 38, 5-(2-(3-((1-cyclopropyl-1H-pyrazol-4-yl)oxy)azetidin-1-yl)-7-methyl-8-oxo-6-(trifluoromethyl)-7,8-dihydropyrimido[5,4-d]pyrimidin-4-yl)picolinonitrile] | 75 to 110 | 6.00 to 7.00
7 | Cn1cc(-c2nc(N3CC(Oc4cnn(C5CC5)c4)C3)nc3c(=O)n(C)c(C(F)(F)F)nc23)ccc1=O [Example 39, 6-(3-((1-cyclopropyl-1H-pyrazol-4-yl)oxy)azetidin-1-yl)-3-methyl-8-(1-methyl-6-oxo-1,6-dihydropyridin-3-yl)-2-(trifluoromethyl)pyrimido[5,4-d]pyrimidin-4(3H)-one] | 75 to 110 | 6.00 to 7.00
8 | Cn1c(C(F)(F)F)nc2c(-c3ccc(F)cc3F)nc(N3CC(Oc4cnn(C5CC5)c4)C3)cc2c1=O [Example 40, 6-(3-((1-cyclopropyl-1H-pyrazol-4-yl)oxy)azetidin-1-yl)-8-(2,4-difluorophenyl)-3-methyl-2-(trifluoromethyl)pyrido[3,4-d]pyrimidin-4(3H)-one] | < 75 | 6.00 to 7.00
9 | Cn1c(C(F)(F)F)nc2c(-c3ccc(C#N)cc3F)nc(N3CC(Oc4cnn(C5CC5)c4)C3)cc2c1=O [Example 41, 4-(6-(3-((1-cyclopropyl-1H-pyrazol-4-yl)oxy)azetidin-1-yl)-3-methyl-4-oxo-2-(trifluoromethyl)-3,4-dihydropyrido[3,4-d]pyrimidin-8-yl)-3-fluorobenzonitrile] | 75 to 110 | 6.00 to 7.00

Results, then the compound that gave them:

Row | Emax [%] | pEC50 | SMILES
10 | 75 to 110 | 7.00 to 8.00 | Cc1cc(OC2CN(c3nc(-c4ccc(F)cc4F)c4nc(C(F)(F)F)n(C)c(=O)c4n3)C2)ccn1 [Example 30, 8-(2,4-difluorophenyl)-3-methyl-6-(3-((2-methylpyridin-4-yl)oxy)azetidin-1-yl)-2-(trifluoromethyl)pyrimido[5,4-d]pyrimidin-4(3H)-one]
11 | < 75 | 7.00 to 8.00 | Cn1c(C(F)(F)F)nc2c(-c3ccc(F)cc3F)nc(N3CC(Oc4cnn(C5CC5)c4)C3)nc2c1=O [Example 32, 6-(3-((1-cyclopropyl-1H-pyrazol-4-yl)oxy)azetidin-1-yl)-8-(2,4-difluorophenyl)-3-methyl-2-(trifluoromethyl)pyrimido[5,4-d]pyrimidin-4(3H)-one]
12 | < 75 | 7.00 to 8.00 | Cc1cc(CC2CN(c3nc(-c4ccc(F)cc4F)c4nc(C(F)(F)F)n(C)c(=O)c4n3)C2)ccn1 [Example 34, 8-(2,4-difluorophenyl)-3-methyl-6-(3-((2-methylpyridin-4-yl)methyl)azetidin-1-yl)-2-(trifluoromethyl)pyrimido[5,4-d]pyrimidin-4(3H)-one]
13 | 75 to 110 | 7.00 to 8.00 | Cn1c(C(F)(F)F)nc2c(-c3ccc(C#N)cc3)nc(N3CC(Oc4cnn(C5CC5)c4)C3)nc2c1=O [Example 35, 4-(2-(3-((1-cyclopropyl-1H-pyrazol-4-yl)oxy)azetidin-1-yl)-7-methyl-8-oxo-6-(trifluoromethyl)-7,8-dihydropyrimido[5,4-d]pyrimidin-4-yl)benzonitrile]

From patent US12459952B2, “TREM2 modulators” (Muna Therapeutics ApS, priority 2024, dated 2025)
